According to patent publication US7625863B2, “Treatment of patients with dysfunctional cardiac sodium channels” (The MetroHealth System, priority 2006, dated 2009):
Values joined by “and” are separate entries in the source; they are usually repeats but may differ in a detail not shown here. Equal entries are not always repeated. “Also recorded” adds a separate entry of the source. Where no end group is shown, it is not given here.

How the values were obtained:
YFP-1022 = assay: FRET folding study of non-mutated channel construct in HEK293 cells; format: cell-based, human; conditions: non-mutated YFP-1022 co-expressed with peptide
Text: Image Analysis and Calculation of Fluorescence Resonance Energy Transfer Ratios: Images were acquired with and Olympus IX71 fluorescent microscope that was fitted with a Hamamatsu ORCA-ER charge coupled device (12 bit) and controlled by the SLIDEBOOK software package from Intelligent Imaging Innovations (Denver, Colo.). Filter cube specifications for the fluorescent channels were as follows for excitation and emission, respectively: enhanced cyan fluorescent protein (CFP), 430±25 and 470±30 nm; enhanced yellow fluorescent protein (YFP), 500±20 and 535±30 nm, and fluorescence resonance energy transfer (FRET), 430±25 and 535±30 nm.
Image analysis involved three basic operations: subtraction of background autofluorescence and blurred light, quantification of fluorescence intensity, and calculation of a corrected FRET (FRETc) using the following equation: FRETc=(IDA−aIAA−dIDD)/IDD,
Where IDA is the fluorescence intensity of the cell measured from the FRET filter set and IDD and IAA are the fluorescent intensities of the same cell measured from the CFP (donor) and YFP (acceptor) filter sets, respectively. The cross-talk coefficients, a and d, are considered constant and a property of our microscope's filter sets, with a=0.03 and d=0.63. The corrected FRET ratio (FRETc) includes normalization to IDD to correct for variances in protein expression from cell to cell. […]

WT channels (Nav1.5) = target: T1, WT channels (Nav1.5) (Homo sapiens, UniProt Q14524); assay: Whole cell patch clamp of sodium currents in HEK293 cells co-expressing WT channels and polymorphic peptide; format: cell-based
T1 construct: expressed in transfected cells; host or cells: HEK293
Text: Creation of Channel Fragments: Channel fragments were created by amplifying a small piece of either the wild type or the H558R polymorphic channel. These pieces were ligated into either the pcDNA3 vector or the pECFP-N3 vector (BD Biosciences Clonetech). The sequences for the fragments are: Wild Type 20 amino acid-[…] (SEQ ID NO: 10), Polymorphic 40 amino acid-[…] (SEQ ID NO: 4), and polymorphic 20 amino acid-[…] (SEQ ID NO: 3).
Expression of Nav1.5 and Fragments in HEK293 Cells: Transient transfection of Nav1.5 and Nav1.5 fragments into human embryonic kidney (HEK293) cells was accomplished using the Polyfect transfection kit (Qiagen, Valencia, Calif.) according to the manufacturer's protocol for 24 hours. When channels were expressed alone, […] of channel cDNA was used. For co-transfections, 1 μg of channel cDNA and 1 μg of fragment cDNA were combined.
Electrophysiology: Macroscopic sodium currents from transfected cells were recorded using the whole cell configuration of the patch clamp technique as previously described (Deschenes, I., et al., 2000 Cardiovasc. Res. 46: 55-65). Cells that emitted green fluorescence were considered successfully transfected. Patch electrodes were made from 1.5 mm thin walled glass capillaries (World Precision Instruments, Sarasota, Fla.). Low resistance electrodes (<2MΩ) were used, and a routine series resistance compensation of an Axopatch 200A was preformed to values >80% to minimize voltage clamp errors. Voltage clamp command pulses were generated by a microcomputer using PCLAMP software version 9.02 (Axon Instruments, Foster City, Calif.). To allow currents to stabilize, experiments were performed 10 minutes after entering whole cell configuration. Membrane currents were filtered at 5 kHZ and digitized with 12-bit resolution. The internal solution contained (in mmol/L) NaCl 35, CsF 105, EGTA 10, and Cs-HEPES 10 adjusted to pH7.4. […]
Whole cell sodium current densities were measured by dividing the peak current obtained from stepping in 10 mV intervals from −80 to 30 mV from the holding potential of −120 mV by the cell capacitance. Cell capacitance was determined by integrating the area under the capacitive transient of a pulse from −80 mV to −70 mV. […]
Voltage dependence of steady state inactivation was determined by 500 ms prepulses ranging from −140 to −30 mV (FIG. 7B inset). […]
Conductance was calculated from peak current obtained by holding the resting membrane potential at −120 mV and stepping in 10 mV intervals from −80 mV to 20 mV according to the equation: G=I/(Vm−Vrec)
The conductance was also fit to a Boltzmann distribution. Time constant of inactivation was measured by fitting individual current traces from the peak current to the end of the pulse with a single exponential: I(t)=A*exp(−t/τ)

[1] = target: T2, H558R-SCN5A+R282H-C373Y-SCN5A channels (Homo sapiens, UniProt Q14524, H558R); assay: MTSET block of whole-cell sodium current, H558R-SCN5A+R282H-C373Y-SCN5A; format: cell-based; conditions: 1 μmol/L MTSET, after 10 minutes, 1 μg + 1 μg, HEK293
T2 construct: expressed in transfected cells; host or cells: HEK293
Method: (§1) Expression of hNav1.5 in HEK293 Cells: Transient transfections of SCN5A expressed in GFP-IRES were performed in human embryonic kidney cells (HEK293) with the Polyfect transfection kit (Qiagen, Valencia, Calif.) according to the manufacturer's protocol for 24 hours.
(§2) Electrophysiology: Macroscopic sodium currents from transfected cells were recorded using the whole-cell configuration of the patch-clamp technique as previously described. (Deschenes I, et al., Cardiovasc Res. 2000; 46:55-65). Cells that emitted green fluorescence and expressed INa-like currents were considered to express mutants and/or polymorphisms of hNav1.5. Patch electrodes were made from 8161 Corning glass (Dow-Corning, Midland, Mich.). Low-resistance electrodes (<2 MΩ) were used, and a routine-series resistance compensation of an Axopatch 200A was performed to values >80% to minimize the voltage-clamp errors. Voltage-clamp command pulses were generated by a microcomputer using PCLAMP software version 9.02 (Axon Instruments, Foster City, Calif.). To stabilize the current, experiments were performed 10 minutes after entering whole-cell configuration. Membrane currents were filtered at 5 kHz and digitized with 12-bit resolution. […]
(§3) Voltage dependence of steady-state inactivation was determined by 500-ms prepulses ranging from −140 to −30 mV. […]

C373Y-SCN5A channels = target: T3, C373Y-SCN5A channels (Homo sapiens, UniProt Q14524, C373Y); format: cell-based
T3 construct: expressed in transfected cells; host or cells: HEK293
Method: as §1, §2, §3

[2] = tested on: WT-SCN5A+C373Y-SCN5A channels; format: cell-based, human
Method: as §1, §2, §3

[3] = tested on: hNav1.5 protein fragments centered on 558 fused to YFP; assay: FRET between hNav1.5 protein fragments centered on 558 fused to CFP or YFP; format: cell-based, human; conditions: coexpressed with homotypic YFP fragment
Text: (§4) The beam splitter was the Chroma 86002v2bs multiband beam splitter for ECFP and EYFP (Rockingham, Vt.).
(§5) The corrected FRET ratio was defined as FRETc/IDD.

[4] = target: T4, hNav1.5 protein fragments centered on 558 fused to YFP (Homo sapiens, UniProt Q14524); assay: as above; format: cell-based; conditions: coexpressed with heterotypic H558-YFPf, internalized compartments
T4 construct: Fragments centered on 558 (40 amino acids) were fused to either CFP or YFP; expressed in transfected cells
Text: as §4, §5

[5] = WT channels treated with polymorphic peptide, HEK293

GSEADFADDENSTAGESESHRTSLLVPWPLRRTSAQGQPS [R558-40aa, 40 amino acid fragment of Nav1.5 containing the H558R polymorphism, expressed from cDNA]
FRETc compared with YFP-1022 alone (YFP-1022): similar | current density (WT channels (Nav1.5); HEK293 cells, WT channels co-expressed with the 40 amino acid fragment, WT alone −337.7±105.8): −474.1±125.9 pA/pF | Conductance (V1/2) (WT channels (Nav1.5); [5]): −40.2 ± 3.3 mV | Steady State Inactivation (V1/2) (WT channels (Nav1.5); [5]): −90.0 ± 1.6 mV | Time Constant of Inactivation compared to WT (WT channels (Nav1.5); WT channels with peptide, FIG. 7D): behaved similarly to WT

C[N+](C)(C)CCSS(C)(=O)=O.[Br-] [MTSET, [2-(trimethylammonium)ethyl]methanethiosulfonate bromide]
reduction of whole-cell sodium current [1]: 48.1±10.0% and 50% | decrease of peak current density (C373Y-SCN5A channels): does not significantly decrease peak current densities; also recorded: does not block | decrease of whole-cell sodium current [2]: 42.6±9.5% and 50%

NSTAGESESHRTSLLVPWPL [R558-20aa, 20 amino acid fragment of Nav1.5 containing the H558R polymorphism, expressed from cDNA]
FRETc compared with YFP-1022 alone (YFP-1022): similar

R558-CFPf: hNav1.5 fragment centered on 558 (40 amino acids) with R558, fused to CFP (GSEADFADDENSTAGESESHRTSLLVPWPLRRTSAQGQPS; also: fused to CFP (carrier left off))
FRETc [3]: 0.01±0.01 | FRETc [4]: 0.04±0.02

H558-CFPf: hNav1.5 fragment centered on 558 (40 amino acids) with H558, fused to CFP (GSEADFADDENSTAGESESHHTSLLVPWPLRRTSAQGQPS; also: fused to CFP (carrier left off))
FRETc [3]: 0.01±0.01
